Measurements taken from patent US20160047819A1, “METHOD FOR DIAGNOSING VAGINAL INFECTIONS” (priority 2013, published 2016).

System: vaginal proteome (human proteins in vaginal fluid)
Assay: MS/MS proteomic analysis of vaginal fluid pools, BV-affected women before (BV) and after rifaximin/placebo treatment: human proteins
Type: in vivo
Method: Proteomic analysis was performed on 9 pools of vaginal isolates, grouped according to the status of the BV infection: • H pool (from 41 healthy women); BV pool (from 39 BV-affected women); • A-R pool (from 2 women who were in remission after rifaximin treatment-group A); • A-N pool (from 8 women who were not in remission after rifaximin treatment-group A); • B-R pool (from 5 women who were in remission after rifaximin treatment-group B); • B-N pool (from 5 women who were not in remission after rifaximin treatment-group B); • C-R pool (from 4 women who were in remission after rifaximin treatment-group C); • C-N (from 5 women who were not in remission after rifaximin treatment-group C); • D-N (from 10 women who were not in remission after placebo treatment-group D). Scheme of the vaginal fluids collected for testing the diagnostic method is represented in FIG. 1.
In these figures are reported the peptides in the fractionated pools of healthy women, women affected by BV and peptides of women treated with rifaximin. The treatment with rifaximin was at dosage of 100 mg/day for 5 days; (remission, A-R; no remission, A-N), 25 mg/5 days (remission, B-R; no remission, B-N), 100 mg/2 days (remission, C-R; no remission, C-N), and placebo for 5 days (D-N). Two types of comparisons were carried out: (i) between fractionated pools of proteins from vaginal fluid of healthy women (HF) versus fractionated pool of proteins from vaginal fluid of women affected by bacterial vaginosis (BVF); (ii) between whole pools of proteins from vaginal fluid of women affected by BV treated by administering different doses of rifaximin or placebo before (BV) and after (A-R, A-N, B-R, B-N, C-R, C-N, D-N) treatment. Fractioned pools of proteins are obtained, e.g., by separating the proteins by separation on membrane filtration with different membrane porosity, prior to MS/MS analysis.
Nine volumes of acetone: HCl (10:1) were added to the supernatant of the vaginal rinsing and proteins were precipitated by centrifuging at 12000 g for 10 min. The protein pellet was dissolved in 1 mL of 70% ethanol and the sample was spun at 12000 g for 10 min. One mL of acetone was added and the proteins were further precipitated by centrifugation at 12000 g for 5 min. After removing supernatant, pellet was dried by SpeedVac concentrator (Thermo Savant ISS110, Thermo Fisher Scientific, Waltham, Mass.) and then stored at −20° C.
Protein extract was quantified using the 2-D Quant Kit (GE Healthcare, Uppsala, Sweden) according to the manufacturer's instructions.
Patients who were diagnosed for BV at the study visit V1 were included in a multicentre, double-blind, randomised, placebo-controlled study (EudraCT: 2009-011826-32), that was performed to compare the efficacy of different doses of rifaximin vaginal tablets versus placebo for the treatment of BV. The patients underwent a randomisation visit and were distributed into 4 treatment groups: group A received 100 mg rifaximin vaginal tablet once daily for 5 days (n=10), group B received 25 mg rifaximin vaginal tablet once daily for 5 days (n=10), group C received 100 mg rifaximin vaginal tablet once daily for the first 2 days and placebo vaginal tablet for the remaining 3 days (n=9), group D received placebo vaginal tablet once daily for 5 days (n=10). Study medication was administered intra-vaginally at bedtime. After 7 to 10 days from the end of the therapy a follow-up visit (V3) was performed. Remission was evaluated at V3 according to Amsel's criteria (<3) and Gram stain Nugent score (≦3) (Table 1).
Standardized vaginal rinsings with 2 mL of saline were collected for analysis at V1 and V3 by flushing and re-aspirating the fluid through a 22 Gauge needle in the left, central and right upper vaginal vaults. The vaginal rinsings were subsequently stored at −80° C. until use.
MS/MS analysis was carried out for H and BV pools and for the whole BV, A-R, A-N, B-R, B-N, C-R, C-N and D-N pools containing 50 μg of protein each. […]

SMILES: CO[C@H]1/C=C/O[C@@]2(C)Oc3c(C)c(O)c4c(O)c(c5c(nc6cc(C)ccn65)c4c3C2=O)NC(=O)/C(C)=C\C=C\[C@H](C)[C@H](O)[C@@H](C)[C@@H](O)[C@@H](C)[C@H](OC(C)=O)[C@@H]1C [rifaximin]
- Ratio: BV/R, Vitamin D-binding protein (C-R pool (100 mg × 2 days, in remission) vs BV pool before treatment, vaginal fluid): 0.0
- Ratio X/H Sciellin (O95171) (pool A-N after treatment): 0.0
- Ratio X/H Semenogelin-2 (Q02383) (pool A-N after treatment): 525.8
- Ratio X/H Serine protease 27 (Q9BQR3) (pool A-N after treatment): 0.0
- Ratio X/H Serine/threonine-protein kinase ULK1 (O75385) (pool A-N after treatment): −5.1
- Ratio X/H Serotransferrin (P02787) (pool A-N after treatment): 1.6
- Ratio X/H Serpin B3 (P29508) (pool A-N after treatment): 0.0
- Ratio X/H Serpin B4 (P48594) (pool A-N after treatment): 0.0
- Ratio X/H Serpin B5 (P36952) (pool A-N after treatment): −3.3
- Ratio X/H Serpin B6 (P35237) (pool A-N after treatment): −2.1
- Ratio X/H Serpin B9 (P50453) (pool A-N after treatment): −2.6
- Ratio X/H Serpin B12 (Q96P63) (pool A-N after treatment): −1.5
- Ratio X/H Serpin B13 (Q9UIV8) (pool A-N after treatment): 0.0
- Ratio X/H Serum albumin (P02768) (pool A-N after treatment): −1.5
- Ratio X/H Serum paraoxonase/arylesterase 1 (P27169) (pool A-N after treatment): 1.5
- Ratio X/H Small proline-rich protein 3 (Q9UBC9) (pool A-N after treatment): 3.4
- Ratio X/H Stanniocalcin-1 (P52823) (pool A-N after treatment): 1.9
- Ratio X/H Sulfhydryl oxidase 1 (O00391) (pool A-N after treatment): −1.6
- Ratio X/H Superoxide dismutase [Cu—Zn] (P00441) (pool A-N after treatment): 0.0
- Ratio X/H Suprabasin (Q6UWP8) (pool A-N after treatment): 13.5
- Ratio X/H Syntenin-1 (O00560) (pool A-N after treatment): 4.4
- Ratio X/H Talin-1 (Q9Y490) (pool A-N after treatment): 0.0
- Ratio X/H Tctex1 domain-containing protein 2 (Q8WW35) (pool A-N after treatment): −1.6
- Ratio X/H Teneurin-3 (Q9P273) (pool A-N after treatment): 9.7
- Ratio X/H Thioredoxin (P10599) (pool A-N after treatment): 0.0
- Ratio X/H Transaldolase (P37837) (pool A-N after treatment): −1.8
- Ratio X/H Transmembrane protease serine 11D (O60235) (pool A-N after treatment): −1.8
- Ratio X/H Transthyretin (P02766) (pool A-N after treatment): 0.0
- Ratio X/H Tumor protein D54 (O43399) (pool A-N after treatment): 0.0
- Ratio X/H UTP--glucose-1-phosphate uridylyltransferase (Q16851) (pool A-N after treatment): 0.0
- Ratio X/H UV excision repair protein RAD23 homolog B (P54727) (pool A-N after treatment): −2.9
- Ratio X/H Uronyl 2-sulfotransferase (Q9Y2C2) (pool A-N after treatment): −786.0
- Ratio X/H Versican core protein (P13611) (pool A-N after treatment): 0.0
- Ratio X/H Vinculin (P18206) (pool A-N after treatment): 0.0
- Ratio X/H Vitamin D-binding protein (P02774) (pool A-N after treatment): 0.0
- Ratio X/H Werner syndrome ATP-dependent helicase (Q14191) (pool A-N after treatment): 302.6
- Ratio X/H Zinc finger protein 185 (O15231) (pool A-N after treatment): 2.2
- Ratio X/H Zinc finger protein 335 (Q9H4Z2) (pool A-N after treatment): 0.0
- Ratio X/H Zinc-alpha-2-glycoprotein (P25311) (pool A-N after treatment): 0.0
- Ratio X/H Zyxin (Q15942) (pool A-N after treatment): −1.7
- Ratio X/H Sciellin (O95171) (pool A-R after treatment): 0.0
- Ratio X/H Semenogelin-2 (Q02383) (pool A-R after treatment): 1.9
- Ratio X/H Serine protease 27 (Q9BQR3) (pool A-R after treatment): −1.7
- Ratio X/H Serine/threonine-protein kinase ULK1 (O75385) (pool A-R after treatment): −2.2
- Ratio X/H Serotransferrin (P02787) (pool A-R after treatment): −1.5
- Ratio X/H Serpin B3 (P29508) (pool A-R after treatment): 3.2
- Ratio X/H Serpin B4 (P48594) (pool A-R after treatment): 0.0
- Ratio X/H Serpin B5 (P36952) (pool A-R after treatment): −7.9
- Ratio X/H Serpin B6 (P35237) (pool A-R after treatment): 0.0
- Ratio X/H Serpin B9 (P50453) (pool A-R after treatment): −4.1
- Ratio X/H Serpin B12 (Q96P63) (pool A-R after treatment): −2.7
- Ratio X/H Serpin B13 (Q9UIV8) (pool A-R after treatment): 0.0
- Ratio X/H Serum albumin (P02768) (pool A-R after treatment): −2.3
- Ratio X/H Serum paraoxonase/arylesterase 1 (P27169) (pool A-R after treatment): 0.0
- Ratio X/H Small proline-rich protein 3 (Q9UBC9) (pool A-R after treatment): 6.6
- Ratio X/H Stanniocalcin-1 (P52823) (pool A-R after treatment): 3.4
- Ratio X/H Sulfhydryl oxidase 1 (O00391) (pool A-R after treatment): 0.0
- Ratio X/H Superoxide dismutase [Cu—Zn] (P00441) (pool A-R after treatment): −1.8
- Ratio X/H Suprabasin (Q6UWP8) (pool A-R after treatment): 17.9
- Ratio X/H Syntenin-1 (O00560) (pool A-R after treatment): 1.9
- Ratio X/H Talin-1 (Q9Y490) (pool A-R after treatment): −1.6
- Ratio X/H Tctex1 domain-containing protein 2 (Q8WW35) (pool A-R after treatment): 1.8
- Ratio X/H Teneurin-3 (Q9P273) (pool A-R after treatment): 33.3
- Ratio X/H Thioredoxin (P10599) (pool A-R after treatment): 2.5
- Ratio X/H Transaldolase (P37837) (pool A-R after treatment): −1.9
- Ratio X/H Transmembrane protease serine 11D (O60235) (pool A-R after treatment): 0.0
- Ratio X/H Transthyretin (P02766) (pool A-R after treatment): 0.0
- Ratio X/H Tumor protein D54 (O43399) (pool A-R after treatment): 2.2
- Ratio X/H UTP--glucose-1-phosphate uridylyltransferase (Q16851) (pool A-R after treatment): 0.0
- Ratio X/H UV excision repair protein RAD23 homolog B (P54727) (pool A-R after treatment): −2.8
- Ratio X/H Uronyl 2-sulfotransferase (Q9Y2C2) (pool A-R after treatment): 2.0
- Ratio X/H Versican core protein (P13611) (pool A-R after treatment): 0.0
- Ratio X/H Vinculin (P18206) (pool A-R after treatment): 0.0
- Ratio X/H Vitamin D-binding protein (P02774) (pool A-R after treatment): −1.7
- Ratio X/H Werner syndrome ATP-dependent helicase (Q14191) (pool A-R after treatment): 331.1
- Ratio X/H Zinc finger protein 185 (O15231) (pool A-R after treatment): 5.2
- Ratio X/H Zinc finger protein 335 (Q9H4Z2) (pool A-R after treatment): 0.0
- Ratio X/H Zinc-alpha-2-glycoprotein (P25311) (pool A-R after treatment): 0.0
